{"source": "paper PMC6917776", "about": "“Discovery of a chemical probe for PRDM9” (Nature Communications, 2019)", "key": {"PRDM9": {"biological_target": "PRDM9 (Homo sapiens, UniProt Q9NQV7)", "sequence (Q9NQV7 whole entry)": "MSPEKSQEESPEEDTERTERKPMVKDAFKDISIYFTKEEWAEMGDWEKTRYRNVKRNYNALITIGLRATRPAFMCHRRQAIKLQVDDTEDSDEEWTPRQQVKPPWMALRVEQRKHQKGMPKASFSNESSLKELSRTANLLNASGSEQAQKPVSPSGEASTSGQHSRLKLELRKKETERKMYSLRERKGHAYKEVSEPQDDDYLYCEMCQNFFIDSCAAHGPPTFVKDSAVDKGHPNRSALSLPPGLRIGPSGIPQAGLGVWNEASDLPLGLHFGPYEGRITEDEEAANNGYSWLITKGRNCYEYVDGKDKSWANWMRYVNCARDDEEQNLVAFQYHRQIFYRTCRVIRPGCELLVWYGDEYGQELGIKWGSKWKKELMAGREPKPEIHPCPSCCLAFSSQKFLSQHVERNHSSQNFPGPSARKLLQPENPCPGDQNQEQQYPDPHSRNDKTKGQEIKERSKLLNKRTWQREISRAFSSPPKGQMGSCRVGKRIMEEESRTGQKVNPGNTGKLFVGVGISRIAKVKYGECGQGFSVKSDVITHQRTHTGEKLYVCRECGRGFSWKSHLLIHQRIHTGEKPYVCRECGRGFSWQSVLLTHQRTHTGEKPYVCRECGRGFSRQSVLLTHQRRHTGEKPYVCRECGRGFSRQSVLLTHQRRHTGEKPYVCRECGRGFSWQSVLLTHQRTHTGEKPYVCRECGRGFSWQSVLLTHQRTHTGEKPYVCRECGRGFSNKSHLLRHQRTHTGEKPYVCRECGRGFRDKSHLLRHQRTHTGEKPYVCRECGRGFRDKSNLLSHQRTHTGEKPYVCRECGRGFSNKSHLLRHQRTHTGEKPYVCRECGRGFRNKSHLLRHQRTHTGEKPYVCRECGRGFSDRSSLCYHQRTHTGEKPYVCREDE", "test": "DSF thermal stabilisation, PRDM selectivity and titration", "assay_type": "binding", "method": "DSF measurements were performed as previously described[21] using a Light Cycler 480 II instrument from Roche Applied Science. […] Sypro Orange was purchased from Invitrogen as a 5000 × stock solution (concentration not specified by vendor) and was diluted 1:1000 to yield a 5 × working concentration. The temperature scan curves were fitted to a Boltzmann sigmoid function, and the Tm values were obtained from the midpoint of the transition."}, "[1]": {"system": "panel of 108 enzymes and receptors", "test": "Eurofins Panlabs customized panel profiling", "assay_type": "binding"}, "Adrenergic α2B": {"biological_target": "T1, Adrenergic α2B (Homo sapiens, UniProt P18089)", "T1 construct": "NIMH Psychoactive Drug Screening Program, University of North Carolina at Chapel Hill", "T1 sequence (P18089 whole entry)": "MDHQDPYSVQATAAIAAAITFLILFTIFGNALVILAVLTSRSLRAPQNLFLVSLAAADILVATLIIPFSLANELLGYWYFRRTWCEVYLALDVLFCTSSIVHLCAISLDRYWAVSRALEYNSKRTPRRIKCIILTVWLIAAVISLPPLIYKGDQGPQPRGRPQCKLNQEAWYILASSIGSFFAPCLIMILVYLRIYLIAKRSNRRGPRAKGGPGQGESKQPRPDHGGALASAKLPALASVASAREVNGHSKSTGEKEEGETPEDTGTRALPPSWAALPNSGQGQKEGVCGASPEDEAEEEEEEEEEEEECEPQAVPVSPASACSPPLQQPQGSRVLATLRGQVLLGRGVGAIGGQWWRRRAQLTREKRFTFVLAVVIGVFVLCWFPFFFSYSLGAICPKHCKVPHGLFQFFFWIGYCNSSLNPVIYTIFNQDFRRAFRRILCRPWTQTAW", "test": "GPCR functional activity, GloSensor assay (agonist and antagonist mode)", "assay_type": "cell-based", "source_text": "(§1) Supplementary Figure 5. Assessment of GPCR functional activity. […]\n(§2) profiles were generously provided by the National Institute of Mental Health’s (NIMH)\n(§3) Psychoactive Drug Screening Program, (Contract # HHSN-271-2013-00017-C) directed by B.L.\n(§4) Roth, University of North Carolina at Chapel Hill and Project Officer J. Driscoll at NIMH,\n(§5) Bethesda, Maryland, USA. Further details available at https://pdspdb.unc.edu/pdspWeb/.\n(§6) MOR stands for “Opiate µ receptor”. […]\n(§7) […] Source data are provided as a"}, "Opiate µ receptor (MOR)": {"biological_target": "T2, Opiate µ receptor (MOR) (Homo sapiens, UniProt P35372)", "T2 construct": "NIMH Psychoactive Drug Screening Program, University of North Carolina at Chapel Hill", "T2 sequence (P35372 whole entry)": "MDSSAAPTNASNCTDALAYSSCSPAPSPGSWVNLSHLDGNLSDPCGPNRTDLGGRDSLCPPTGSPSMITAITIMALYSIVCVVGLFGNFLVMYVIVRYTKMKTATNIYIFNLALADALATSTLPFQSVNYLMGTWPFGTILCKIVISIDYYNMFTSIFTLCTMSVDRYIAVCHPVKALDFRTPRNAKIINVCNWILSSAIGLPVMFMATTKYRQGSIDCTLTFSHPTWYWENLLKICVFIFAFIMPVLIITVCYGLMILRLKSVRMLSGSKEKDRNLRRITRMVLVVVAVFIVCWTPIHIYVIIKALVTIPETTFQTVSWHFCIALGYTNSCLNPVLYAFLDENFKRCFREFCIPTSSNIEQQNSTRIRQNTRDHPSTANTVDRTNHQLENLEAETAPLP", "test": "GPCR functional activity, GloSensor assay (agonist and antagonist mode)", "assay_type": "cell-based", "conditions": "for MOR Gi Agonist, raw signal: replicates 1-3; for MOR Tango Antagonist, raw signal: replicates 1-4", "source_text": "as §1, §2, §3, §4, §5, §6, §7"}, "[2]": {"conditions": "MRK-740 125 uM, in the presence of 2 mM of SAM"}, "[3]": {"conditions": "MRK-740 250 uM, in the absence of SAM"}, "[4]": {"conditions": "MRK-740 250 uM, in the presence of 2 mM of SAM"}, "[5]": {"conditions": "MRK-740 500 uM, in the absence of SAM"}, "[6]": {"conditions": "MRK-740 500 uM, in the presence of 2 mM of SAM"}}, "note": "Where “and” joins values, the source holds several entries; their conditions need not be identical. Identical values can stand only once.", "data": [{"smiles": "COc1cc(OC)cc(-c2noc(N3CCN(C)C4(CCN(c5ccnc(C)c5)CC4)C3)n2)c1", "note": "[MRK-740]", "values": [{"measurement": "∆Tm, Average (n=3)", "setting": "PRDM9; [2]", "result": "4.481 ⁰C"}, {"measurement": "∆Tm, replicates", "setting": "PRDM9; [2]", "result": "4.418 ⁰C and 4.4008 ⁰C and 4.624 ⁰C"}, {"measurement": "∆Tm, Average (n=3)", "setting": "PRDM9; [3]", "result": "0.7417 ⁰C"}, {"measurement": "∆Tm, replicates", "setting": "PRDM9; [3]", "result": "0.7489 ⁰C and 0.7435 ⁰C and 0.7328 ⁰C"}, {"measurement": "∆Tm, Average (n=3)", "setting": "PRDM9; [4]", "result": "5.104 ⁰C"}, {"measurement": "∆Tm, replicates", "setting": "PRDM9; [4]", "result": "5.051 ⁰C and 5.067 ⁰C and 5.196 ⁰C"}, {"measurement": "∆Tm, Average (n=3)", "setting": "PRDM9; [5]", "result": "1.354 ⁰C"}, {"measurement": "∆Tm, replicates", "setting": "PRDM9; [5]", "result": "1.288 ⁰C and 1.351 ⁰C and 1.422 ⁰C"}, {"measurement": "∆Tm, Average (n=3)", "setting": "PRDM9; [6]", "result": "5.9348 ⁰C"}, {"measurement": "∆Tm, replicates", "setting": "PRDM9; [6]", "result": "5.8495 ⁰C and 5.999 ⁰C and 5.956 ⁰C"}, {"measurement": "Panel of 108 enzymes and receptors: targets with significant (>50% at 10 µM) binding", "setting": "[1]", "result": "binding only to Adrenergic α2B, Histamine H3, Muscarinic M2 and Opiate µ receptors"}, {"measurement": "Functional activity (in words)", "setting": "Adrenergic α2B", "result": "no functional activity"}, {"measurement": "Functional activity (in words)", "setting": "Opiate µ receptor (MOR); agonist and antagonist mode", "result": "some potential agonistic activity"}, {"measurement": "MOR Gi Agonist, raw signal", "setting": "Opiate µ receptor (MOR); log[MRK-740] -4.52", "result": "523.998 and 475.715 and 479.854"}, {"measurement": "MOR Tango Antagonist, raw signal", "setting": "Opiate µ receptor (MOR); log[MRK-740] -4.52", "result": "6964.63 and 7700.23 and 6817.3 and 8343.47"}, {"measurement": "MOR Gi Agonist, raw signal", "setting": "Opiate µ receptor (MOR); log[MRK-740] -5", "result": "470.197 and 394.324 and 410.878"}, {"measurement": "MOR Tango Antagonist, raw signal", "setting": "Opiate µ receptor (MOR); log[MRK-740] -5", "result": "5111.95 and 4601.78 and 6359.89 and 4362.1"}, {"measurement": "MOR Gi Agonist, raw signal", "setting": "Opiate µ receptor (MOR); log[MRK-740] -5.52", "result": "427.432 and 384.668 and 477.095"}, {"measurement": "MOR Tango Antagonist, raw signal", "setting": "Opiate µ receptor (MOR); log[MRK-740] -5.52", "result": "5940.98 and 5705.68 and 7225.22 and 4368.69"}, {"measurement": "MOR Gi Agonist, raw signal", "setting": "Opiate µ receptor (MOR); log[MRK-740] -6", "result": "441.227 and 430.191 and 452.263"}, {"measurement": "MOR Tango Antagonist, raw signal", "setting": "Opiate µ receptor (MOR); log[MRK-740] -6", "result": "5577.04 and 4612.78 and 4219.16 and 5663.9"}, {"measurement": "MOR Gi Agonist, raw signal", "setting": "Opiate µ receptor (MOR); log[MRK-740] -6.52", "result": "489.51 and 460.54 and 466.058"}, {"measurement": "MOR Tango Antagonist, raw signal", "setting": "Opiate µ receptor (MOR); log[MRK-740] -6.52", "result": "4965.72 and 6716.14 and 4770.01 and 6856.88"}, {"measurement": "MOR Gi Agonist, raw signal", "setting": "Opiate µ receptor (MOR); log[MRK-740] -7", "result": "347.421 and 472.956 and 397.083"}, {"measurement": "MOR Tango Antagonist, raw signal", "setting": "Opiate µ receptor (MOR); log[MRK-740] -7", "result": "4544.61 and 3827.75 and 5625.42 and 6334.6"}, {"measurement": "MOR Gi Agonist, raw signal", "setting": "Opiate µ receptor (MOR); log[MRK-740] -7.52", "result": "452.263 and 417.776 and 391.565"}, {"measurement": "MOR Tango Antagonist, raw signal", "setting": "Opiate µ receptor (MOR); log[MRK-740] -7.52", "result": "9293.5 and 6501.73 and 7215.33 and 6591.89"}, {"measurement": "MOR Gi Agonist, raw signal", "setting": "Opiate µ receptor (MOR); log[MRK-740] -8", "result": "452.263 and 390.186 and 408.119"}, {"measurement": "MOR Tango Antagonist, raw signal", "setting": "Opiate µ receptor (MOR); log[MRK-740] -8", "result": "5778.25 and 5276.87 and 5467.09 and 6480.84"}, {"measurement": "MOR Gi Agonist, raw signal", "setting": "Opiate µ receptor (MOR); log[MRK-740] -8.52", "result": "394.631 and 390.374 and 448.545"}, {"measurement": "MOR Tango Antagonist, raw signal", "setting": "Opiate µ receptor (MOR); log[MRK-740] -8.52", "result": "5605.48 and 3120.04 and 6717.48 and 4672.02"}, {"measurement": "MOR Gi Agonist, raw signal", "setting": "Opiate µ receptor (MOR); log[MRK-740] -9", "result": "413.075 and 366.255 and 451.383"}, {"measurement": "MOR Tango Antagonist, raw signal", "setting": "Opiate µ receptor (MOR); log[MRK-740] -9", "result": "3692.19 and 5665.93 and 3690.78 and 6270.43"}, {"measurement": "MOR Gi Agonist, raw signal", "setting": "Opiate µ receptor (MOR); log[MRK-740] -9.52", "result": "424.425 and 437.195 and 438.613"}, {"measurement": "MOR Tango Antagonist, raw signal", "setting": "Opiate µ receptor (MOR); log[MRK-740] -9.52", "result": "5109.22 and 7289.66 and 4705.76 and 4478.02"}, {"measurement": "MOR Gi Agonist, raw signal", "setting": "Opiate µ receptor (MOR); log[MRK-740] -10", "result": "492.528 and 401.725 and 449.964"}, {"measurement": "MOR Tango Antagonist, raw signal", "setting": "Opiate µ receptor (MOR); log[MRK-740] -10", "result": "3780.75 and 4352.9 and 3641.58 and 3605.03"}, {"measurement": "MOR Gi Agonist, raw signal", "setting": "Opiate µ receptor (MOR); log[MRK-740] -10.52", "result": "408.819 and 508.135 and 464.152"}, {"measurement": "MOR Tango Antagonist, raw signal", "setting": "Opiate µ receptor (MOR); log[MRK-740] -10.52", "result": "4105.49 and 4174.37 and 7219.37 and 6121.41"}, {"measurement": "MOR Gi Agonist, raw signal", "setting": "Opiate µ receptor (MOR); log[MRK-740] -11", "result": "516.647 and 510.972 and 540.767"}, {"measurement": "MOR Tango Antagonist, raw signal", "setting": "Opiate µ receptor (MOR); log[MRK-740] -11", "result": "4295.27 and 3517.87 and 4659.37 and 5872.58"}, {"measurement": "MOR Gi Agonist, raw signal", "setting": "Opiate µ receptor (MOR); log[MRK-740] -11.52", "result": "627.314 and 488.271 and 566.306"}, {"measurement": "MOR Tango Antagonist, raw signal", "setting": "Opiate µ receptor (MOR); log[MRK-740] -11.52", "result": "8307.51 and 6114.38 and 4948.96 and 5192.17"}, {"measurement": "MOR Gi Agonist, raw signal", "setting": "Opiate µ receptor (MOR); log[MRK-740] -12", "result": "684.066 and 560.63 and 516.647"}, {"measurement": "MOR Tango Antagonist, raw signal", "setting": "Opiate µ receptor (MOR); log[MRK-740] -12", "result": "4510.35 and 4657.96 and 5814.94 and 6055.34"}]}]}
